Reference: US20050267020A1, “Polypeptides derived from inducible hsp70 and pharmaceutical compositions containing the same” (priority 2001, published 2005)

How the values were obtained:
[1] = test system: HHD mice; assay: Vaccination of HHD mice, ex vivo IFN-γ ELISPOT assay; type: in vivo, mouse
Description: Immune responses were monitored ex vivo in an IFN-γ Elispot assay. The X axis represents the percentage of immunized mice responding to the different epitopes.
The 8 graphs represent the immune responses obtained for each of the immunized mice with the 22-mer epitope. The X axis represents the number of IFN-γ producing CTLs for 10^5 ex vivo CD8+ cells upon activation. On the Y axis, the bars represent the respective level of IFN-γ producing CTLs against p391 or p393 peptide or against irrelevant HIV pol589 peptides.
Generation of CTL in HLA-transgenic mice. HLA-transgenic mice were injected subcutaneously at the base of the tail with 100 μg of peptide emulsified in incomplete Freund's adjuvant (IFA) in the presence of 140 μg of the I-A^b restricted HBVcore-derived T-helper epitope (128-140; sequence TPPAYRPPNAPIL). After 11 days, spleen cells (5×10^7 cells in 10 mL) were stimulated in vitro with peptide (10 μM). […]
ELISPOT Assay. The ELISPOT assay was used to quantify peptide epitope-specific, IFN-γ-releasing effector cells. […] The spots were counted using an automated image analysis system ELISPOT Reader (A/D Strassberg, Germany). The peptide-specific IFN-γ secreting cells frequency could be calculated from the numbers of spot-forming cells and from the CD8+ frequency in the studied lymphocyte population, adressed by immunostaining with an anti-CD8 mAb (clone 3B5; Caltag Laboratories, CA).

[2] = test system: human CD8+ cells; assay: Generation of CTL from human PBMC with peptide- or polyepitope-pulsed dendritic cells, intracellular IFN-γ staining; type: cell-based; conditions: human PBMC; multiple restimulations of CD8+ cells; T2 cells loaded with p380, p391 or p393
Experimental: The three graphs entitled hCTL380, hCTL391 and hCTL393 represent respectively the testing of p380, p391 and p393-specific human CTLs. P391 and p393 specific CTLs were tested towards EBV-B cells, whereas p380 specific CTLs were tested towards T2 cells. The number of IFN-γ producing CD8+ cells for 10^5 CD8+ cells upon activation, indicated on the X-axis, was measured, as assessed by staining cells for CD8 and intracellular IFN-γ.
Polyepitope induced human CTL were tested for their capacity to respond to T2 cells loaded with p380, p391 or p393 or the irrelevant HIVpol589 peptides in intracellular IFN-γ staining. The X axis represents the number of IFNγ-producing CTL/10^5 CD8+ cells. On the Y axis, upper to lower bars represent the results obtained when cells were loaded respectively with irrelevant HIV pol589 peptides, or with p380, p391 or p393 peptides.
Generation of CTL from Human Peripheral Blood Mononuclear Cells (PBMC). Fresh PBMC collected from healthy donnors under informed consent were serologically typed for the studied HLA-class I molecule, and purified using standard Ficoll-Paque (Amersham Pharmacia Biotech AB). Dendritic cells (DC) were prepared by cultivating plastic adherent PBMC in the presence of 500 U/mL GM-CSF (R&D Systems Inc. MN) and 500 U/mL IL-4 (R&D Systems Inc. MN) for 7 days such as described in Keogh et al. (30).
DC were then maturated for 2 days with 2 μg/mL anti-CD40 antibody and 100 ng/mL Poly I:C (Sigma-Aldrich). […] Autologous CD8+ purified T-cells (CD8 MicroBeads, Miltneyi Biotec Inc. CA) were stimulated weekly with DC pulsed for two hours with peptide (10 μM) and irradiated at 35Gy at a T:DC ratio of 10:1 in culture medium (CM; RPMI 1640 supplemented with 10% human AB serum, […] L-glutamine and gentamycin). 1×10^3 U/mL IL-6 and SU/mL IL-12 (R&D Systems Inc. MN) were added during the first week of culture. 20 U/mL clinical grade IL-2 (Proleukin, Chiron Corp.) and 10 ng/mL IL-7 (R&D Systems Inc. MN) were added during the next two weeks of culture. 7 days after the last stimulation with DC, peptide specific IFN-γ secreting CD8+ T cells were magnetically sorted following encounter of the peptide presented by HLA-A*0201+ B-EBV cells (IFN-γ Secretion Assay, Miltenyi Biotec Inc. CA). The characterization of peptide-specific T cells was tested 7 days after the purification step.
Intracellular IFN-g Staining. 5×10^4 T cells were incubated with 10^5 stimulating peptide loaded EBV-B cells or with 10^5 tumor cells in the presence of 20 μg/ml brefeldin-A (Sigma, Oakville, Canada). Six hours later, they were washed, stained with r-phycoerythrin-conjugated anti-CD8 antibody (Caltag Laboratories, Burlingame, Calif.) in PBS for 25 min at 4° C., washed and fixed with 4% PFA. Then, cells were permeabilized with PBS 0.5% BSA 0.2% saponin (Sigma, Oakville, Canada), and stained with allophycocyanin-conjugated anti-IFNg mAb (PharMingen, Mississauga, Canada) for 25 min at 4° C. Cells were analyzed on FACSCalibur (Becton Dickinson, Mountain View, Calif.).

Sequence: LMGDKSENVQDLLLLDVAPLSL [22-mer polyepitope]
- mice responding after vaccination [1]: induced responses in most mice
- epitopes against which immune responses were raised after vaccination ([1]; HSP380, HSP391, HSP393 epitopes): induced immune responses against all three Hsp70 epitopes
- specificity of human CTL lines induced with pulsed dendritic cells [2]: showed specificity towards all three Hsp70 epitopes
